Values joined by “and” are separate entries in the source; they are usually repeats but may differ in a detail not shown here. Equal entries are not always repeated. “Also recorded” adds a separate entry of the source. Where two headings read alike, the source gives them in different places.
What was measured:
[1] = In vivo pharmacokinetics, IP injection or oral gavage, 10 mg/kg; design: species or system mouse; conditions: for Kp at 3 h: brain/plasma, read-out: Brain/plasma ratio at 3 h; for Cmax: plasma
Protocol: Based on its strong performance in the microsome assay, 12k was selected for further pharmacokinetic analysis in vivo. Compounds 1 and 12k were administered to 8 week-old wild-type […] mice at 10 mg/kg through intraperitoneal (IP) injection or oral gavage (OG). Brains and plasma were collected across 4 time points over 24 h for LC-MS/MS analysis.
Compounds 1 and 12k were dissolved in DMSO to 40 mg/mL. For in vivo administration, the DMSO stock was further diluted to 2 mg/mL in a vehicle containing 40% PEG-400 (Sigma) and 55% of a (2-hydroxypropyl)-beta-cyclodextrin solution (20% in nanopure water, Sigma). Compounds were delivered at 10 mg/kg by intraperitoneal injection or oral gavage to 8 week-old male wild-type C57Bl6J mice (Jackson). After 15 min, 3 h, 8 h or 24h, animals were anesthetized with a mixture of ketamine (100 mg/kg) and xylazine (10 mg/kg), then decapitated to collect trunk blood and dissect fresh brain tissue. Blood samples were treated with EDTA solution (50 mM final concentration) to prevent coagulation and centrifuged for 10 min at 845 rcf at 4° to separate plasma. Fresh brains were lysed in 5 volumes of ddH2O.
Plasma samples were transferred to Eppendorf tubes (50 μL per sample) and diluted with acetonitrile (200 μL). The samples were sonicated for 1 minute followed by centrifugation at 16,000 rpm for 10 minutes. The supernatant was transferred to another Eppendorf tube and the solvent evaporated overnight. The samples were reconstituted in a mixture of 40 μL acetonitrile and 10 μL water transferred to a sample vial with insert, and analyzed by LC-MS.
Homogenized brain samples (250 μL) were transferred to Eppendorf tubes and diluted with acetonitrile (750 μL). The samples were sonicated for 1 minute followed by centrifugation at 16,000 rpm for 10 minutes. The supernatant (900 μL) was transferred to another Eppendorf tube and the solvent evaporated overnight. The samples were reconstituted in a mixture of 80 μL acetonitrile and 20 μL water, transferred to a sample vial with insert, and analyzed by LC-MS.
LC-MS analysis was performed on a platform comprising a Thermo Scientific Dionex Ultimate 3000 and a Bruker amaZon SL equipped with an electrospray ionization source controlled by Bruker Hystar 3.2. The compound concentration in each plasma sample was determined using a calibration curve. Chromatographic separation was performed by injecting 10 μL of the sample onto an Agilent Eclipse Plus C18 column (2.1×50 mm, 3.5 μm) maintained at 20° C. The flow rate was maintained at 400 μL/min. The initial flow conditions were 60% solvent A (water containing 0.1% acetic acid) and 40% solvent B (methanol containing 0.1% acetic acid). Solvent B was raised to 60% over 0.25 minutes and to 70% by 6.75 minutes.

N9 microglial cells = test: TNFα release by LPS-stimulated microglia (ELISA); format: cell-based, mouse; conditions: for TNFα secretion in LPS-stimulated microglia: LPS 0.1-5 μM, 24 h
Protocol: To model microglial activation in vitro, we stimulated mouse N9 microglial cells with increasing concentrations of E. coli-derived lipopolysaccharides (LPS) (0.1-5 μM) to measure release of the pro-inflammatory cytokine TNFα into cell culture media.
Cultures were maintained in DMEM containing FBS (10%, Life Technologies) and Glutamax (1%, Life Technologies). […] N9 cells remaining in the culture dishes were treated with AlamarBlue (Thermo Fisher) to assess viability. 5 μL AlamarBlue was added to each well (containing 50 μL culture media) and incubated for 4 h at 37°.

[2] = target: T1, panel of 371 human kinases (Homo sapiens, UniProt Q99986); test: Radiolabeled ATP kinase assay, panel of 371 kinases (Table S6); format: biochemical; conditions: VRK1; 0.1 μM; 10 μM ATP; read-out: % Enzyme Activity (relative to DMSO controls)
T1 construct: purchased Reaction Biology Corp
Description: (§1) ; FIG. 38C). […]. Further targeted analyses, such as genetic knock-down or knock-out, may be warranted to parse the role of these additional kinases in our model of neurodegeneration.

[3] = target: T2, panel of 371 human kinases (Homo sapiens, UniProt P16234); test: as above; format: biochemical; conditions: PDGFRa; 0.1 μM; 10 μM ATP; read-out: % Enzyme Activity (relative to DMSO controls)
T2 construct: purchased Reaction Biology Corp
Description: as §1

[4] = system: mouse ES-derived motor neurons; test: Western blot of JNK pathway activation in CPA-treated motor neurons; format: cell-based; conditions: 4 h
Protocol: Mouse ES-derived motor neurons were treated with CPA, CPA+ compound 1, or vehicle control (DMSO) for four hours. Cells were then lysed to extract proteins.
Samples were harvested after 4 h of treatment. N=samples from 3 separate motor neuron differentiations treated and lysed separately. Cells from each differentiation were split into three samples, one for each treatment condition. All samples were run concurrently on the same blot. All band intensities were normalized to GAPDH to control for loading, then DMSO and CPA+Compound 1 values were normalized to CPA values for each n. One-way ANOVAs were used to evaluate the overall effects of treatment on JNK phosphorylation (P=0.0009; F=28.33; R2=0.9042) and c-Jun phosphorylation (P<0.0001; F=101.9; R2=0.9714).
Whole mouse embryoid bodies at day 6 of differentiation were treated with CPA (10 μM) and test compounds for 4 h, then lysed and sonicated in ice-cold buffer containing HEPES (50 mM), NaCl (100 mM), Triton-X (1%), SDS (0.1%), DTT (1 mM), EDTA (1 mM), plus protease and phosphatase inhibitor cocktail tablets (Roche). Total protein content was analyzed using a BCA kit according to the manufacturer's instructions (Pierce). […] Samples were run for 4 h at 100V at 4°, then transferred to nitrocellulose membranes using an iBlot dry transfer system (Thermo Fisher). Membranes were blocked with tris-buffered saline (TBS) containing 5% BSA (Cell Signaling Technologies), then incubated with primary antibodies in a buffer containing 5% BSA and 0.1% Tween in TBS overnight at 4°. Primary antibodies against phospho-c-Jun (serine 63; Cell Signaling Technologies #9261) were added at 1:500; primary antibodies against phospho-JNK (thr183/tyr185; Cell Signaling Technologies #4688) were added at 1:1000; primary antibodies against GAPDH (Santa Cruz Biotechnologies) were added at 1:1000 as a loading control. Following washes in TBS containing 0.1% Tween, membranes were incubated in goat anti-rabbit HRP-conjugated secondary antibody solutions (1:10,000; Santa Cruz Biotechnologies) for 1 hr. Membranes were then washed again in TBS containing 0.1% Tween, then incubated in Femto ECL (Pierce) for 5 min. Chemiluminescence was visualized using a LiCor Odyssey. Phospho-c-Jun and phopsho-JNK band intensities were normalized to GAPDH.

T2 sequence (P16234 24-1089): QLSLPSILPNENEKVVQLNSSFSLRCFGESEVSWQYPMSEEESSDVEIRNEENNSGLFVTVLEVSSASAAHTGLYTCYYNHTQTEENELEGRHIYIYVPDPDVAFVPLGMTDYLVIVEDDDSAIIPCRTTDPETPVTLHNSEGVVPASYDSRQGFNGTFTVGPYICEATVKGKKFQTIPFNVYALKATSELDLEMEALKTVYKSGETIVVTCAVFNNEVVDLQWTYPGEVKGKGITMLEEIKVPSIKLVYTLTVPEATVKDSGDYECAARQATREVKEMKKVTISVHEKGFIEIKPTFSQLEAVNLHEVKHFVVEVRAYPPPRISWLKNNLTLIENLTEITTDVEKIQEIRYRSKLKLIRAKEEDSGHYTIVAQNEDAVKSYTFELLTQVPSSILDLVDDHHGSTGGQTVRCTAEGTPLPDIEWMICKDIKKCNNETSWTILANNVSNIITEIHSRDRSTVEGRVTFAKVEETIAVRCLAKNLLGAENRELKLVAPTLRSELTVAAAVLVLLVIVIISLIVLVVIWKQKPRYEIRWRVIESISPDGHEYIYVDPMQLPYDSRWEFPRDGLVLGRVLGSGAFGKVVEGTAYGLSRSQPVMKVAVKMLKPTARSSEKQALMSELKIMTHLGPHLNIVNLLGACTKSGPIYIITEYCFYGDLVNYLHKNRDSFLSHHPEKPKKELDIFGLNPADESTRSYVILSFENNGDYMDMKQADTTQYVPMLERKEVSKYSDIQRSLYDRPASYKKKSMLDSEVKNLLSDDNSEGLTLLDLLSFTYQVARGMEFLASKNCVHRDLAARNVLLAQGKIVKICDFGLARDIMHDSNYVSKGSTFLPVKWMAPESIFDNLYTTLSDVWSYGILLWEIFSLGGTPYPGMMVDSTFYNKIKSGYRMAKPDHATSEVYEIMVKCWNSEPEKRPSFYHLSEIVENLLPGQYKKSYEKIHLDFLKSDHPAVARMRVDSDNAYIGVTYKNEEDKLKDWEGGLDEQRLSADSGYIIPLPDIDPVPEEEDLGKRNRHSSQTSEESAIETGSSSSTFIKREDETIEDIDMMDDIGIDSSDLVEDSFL
T1 sequence (Q99986 whole entry): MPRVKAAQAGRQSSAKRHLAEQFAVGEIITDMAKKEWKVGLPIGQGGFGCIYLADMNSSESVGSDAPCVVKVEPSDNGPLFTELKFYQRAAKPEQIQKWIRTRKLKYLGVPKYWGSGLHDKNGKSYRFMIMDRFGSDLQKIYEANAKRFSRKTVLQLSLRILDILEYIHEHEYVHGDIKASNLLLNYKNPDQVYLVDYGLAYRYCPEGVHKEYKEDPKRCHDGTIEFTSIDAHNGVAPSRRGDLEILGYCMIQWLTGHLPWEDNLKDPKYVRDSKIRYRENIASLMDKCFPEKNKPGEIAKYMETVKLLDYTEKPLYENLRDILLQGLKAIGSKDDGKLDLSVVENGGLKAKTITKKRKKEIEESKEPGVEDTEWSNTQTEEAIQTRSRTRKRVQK

OCCN1CCN(Cc2ccc(-c3cnc4[nH]cc(-c5cccc(Cl)c5)c4c3)cc2)CC1 [Compound 12k, 2-(4-(4-(3-(3-Chlorophenyl)-1H-pyrrolo[2,3-b]pyridin-5-yl)benzyl)piperazin-1-yl)ethan-1-ol]
Oral bioavailability (% F) based on plasma measurements in IP vs. OG-treated animals [1]: 73%
Brain AUC ([1]; IP): 11570 ng·h/mL
Brain mean Cmax ([1]; IP): 1162.23 µg/kg
Plasma AUC ([1]; IP): 3899 ng·h/mL
brain Cmax ([1]; IP-injected): 1162 ng/g and 2.60 μM
Brain AUC ([1]; OG): 8429 ng·h/mL
Brain mean Cmax ([1]; OG): 658.88 µg/kg
Plasma AUC ([1]; OG): 2785 ng·h/mL
bioavailability ([1]; male, mouse, brain, po, read-out: Oral bioavailability (% F) by comparing brain measurements): 73%
Kp at 3 h ([1]; male, mouse, ip): 3.91
Kp at 3 h ([1]; male, mouse, oral, OG): 2.58
Cmax ([1]; male, mouse, ip): 454 ng/mL
Cmax ([1]; male, mouse, po, OG): 184 ng/mL
potency in TNFα release assay relative to compound 1 (times less potent) (N9 microglial cells): ~5 ×
TNFα secretion in LPS-stimulated microglia (N9 microglial cells): significantly decreased TNFα secretion
remaining activity at 0.1 µM [2]: 88.3%
remaining activity at 0.1 µM [3]: 87.8%

CN1CCN(Cc2ccc(-c3cnc4[nH]cc(-c5ccc6[nH]ccc6c5)c4c3)cc2)CC1 [Compound 1, 3-(1H-Indol-5-yl)-5-(4-((4-methylpiperazin-1-yl)methyl)phenyl)-1H-pyrrolo[2,3-b]pyridine, reference compound]
Oral bioavailability (% F) based on plasma measurements in IP vs. OG-treated animals [1]: 46%
Brain AUC ([1]; IP): 1568 ng·h/mL
Brain mean Cmax ([1]; IP): 208.83 µg/kg
Plasma AUC ([1]; IP): 7328 ng·h/mL
Brain AUC ([1]; OG): 567.2 ng·h/mL
Brain mean Cmax ([1]; OG): 83.35 µg/kg
Plasma AUC ([1]; OG): 3401 ng·h/mL
Kp at 3 h ([1]; male, mouse, ip): 0.25
Kp at 3 h ([1]; male, mouse, oral, OG): 0.18
Cmax ([1]; male, mouse, ip): 972 ng/mL
Cmax ([1]; male, mouse, po, OG): 476 ng/mL
TNFα secretion in LPS-stimulated microglia (N9 microglial cells): significantly and dose-dependently decreased TNFα secretion
remaining activity at 0.1 µM [2]: 95.8%
remaining activity at 0.1 µM [3]: 86.9%
JNK phosphorylation in CPA-treated motor neurons [4]: strongly attenuated; also recorded: significantly decreased JNK phosphorylation
MKK4 phosphorylation in CPA-treated MNs [4]: strongly attenuated
c-Jun phosphorylation in CPA-treated motor neurons [4]: strongly suppressed; also recorded: below the threshold of detection
caspase 3 cleavage in CPA-treated MNs [4]: strongly suppressed

Reference: patent US12227500B2, “Substituted pyrrolo[2,3-b]pyridines for suppressing toxic endoplasmic reticulum stress” (THE TRUSTEES OF COLUMBIA UNIVERSITY IN THE CITY OF NEW YORK, priority 2018, dated 2025)
